These are literature values, as cited in patent US20120244588A1, “METHOD OF PRODUCING 3-HYDROXYPROPIONIC ACID USING MALONIC SEMIALDEHYDE REDUCING PATHWAY” (SAMSUNG ELECTRONICS CO., LTD., priority 2011, published 2012).

For data set [1] the following is noted: 25° C.

By pKa is commonly meant the pH at which an ionisable group is half protonated. Take `O=C(O)CCO` [3-HP, 3-hydroxypropionic acid]: the solubility in water result is “very soluble”. Moreover, in data set [1], the pKa is given as 4.51. With `O=C([O-])CCO.O=C([O-])CCO.[Ca+2]` [calcium salt of 3-HP], the “solubility in water relative to citric acid or malic acid” value is listed as 100 times.
